Laboratory results published in patent publication US20090163451A1, “METHODS FOR TREATING VISCERAL PAIN” (priority 2007, published 2009).
Entries after “also recorded” stand apart in the source; their conditions may differ.

Assays:
[1] = test system: acetic acid-induced abdominal writhing in mice; conditions: mice (Ghelardini et al.; Jain et al.); cited from earlier work
[2] = test system: thermal hypersensitivity induced by intraplantar injection of carrageenan; conditions: injected systemically at similar doses used in the present study (Bingham et al.); cited from earlier work
[3] = test system: evoked release of calcitonin gene-related peptide from the rat isolated spinal cord; conditions: rat isolated spinal cord (Arvieu et al.); cited from earlier work
[4] = test system: rats with experimental pancreatitis (DBTC), referred abdominal hypersensitivity; assay: experimental pancreatitis model (IV DBTC): referred abdominal hypersensitivity, withdrawals to von Frey filament; format: in vivo, Sprague Dawley rats
Description: (§1) Adult male Sprague Dawley rats (Harlan, Indianapolis, Ind.), weighing 150-200 g, were maintained in a climate-controlled room with ad lib food and water on a 12 hour/12 hour light/dark cycle (lights on at 07:00 hours). All procedures followed the policies of the International Association for the Study of Pain and the NIH guidelines for the handling and use of laboratory animals. Studies were approved by the University of Arizona IACUC.
(§2) Dibutyltin dichloride (DBTC) was obtained from Sigma-Aldrich (Milwaukee, Wis.) and dissolved in 100% ethanol to a concentration of 8 mg/kg (Sparmann et al., Gastroenterology. 112:1664-1672 (1997))). Sumatriptan succinate was obtained from Toronto Research Chemicals (ON, Canada) and dissolved in saline to 1, 3, and 10 μg for RVM microinjections and 100, 200, and 300 μg/kg for systemic injections (Kayser et al., Br J Pharmacol. 137:1287-1297 (2002)). The 5HT1B antagonist isamoltane and the 5HT1D antagonist BRL15722 were obtained from Tocris (Elllisville, Mo.). Isamoltane was dissolved in saline to a concentration of 3 μg for RVM microinjection and to a concentration of 4 mg/kg (Ottani et al., Eur J Pharmacol. 497:181-186 (2004)) for system application. BRL15722 was dissolved in 10% DMSO to a concentration of 3 μg for RVM microinjection and to a concentration of 0.3 mg/kg (Ottani et al., Eur J Pharmacol. 497:181-186 (2004)) for systemic application.
For the experiments involving microinjection of drugs into the RVM, rats underwent surgeries to implant RVM cannulae. After five days of recovery, rats received either intravenous injection of DBTC to induce pancreatitis, or intracolonic injection of sodium butyrate to induce colonic hypersensitivity. Animals were monitored for development of visceral hypersensitivity on the subsequent days. On day six after either induction of pancreatitis or colonic hypersensitivity, animals underwent baseline behavioral measurements. […] For experiments investigating the effects of serotonin antagonists, the drugs were microinjected concurrently with injection of sumatriptan and animals were monitored for the subsequent two h. Separate groups of animals were microinjected with the antagonists alone to control for possible effects of the drugs by themselves.
For the experiments involving systemic drug administration, rats received intravenous injection of DBTC to induce pancreatitis or intracolonic injection of sodium butyrate to induce colonic hypersensitivity. On day six after either induction of pancreatitis of colonic hypersensitivity, animals underwent baseline behavioral measurements. […] Separate groups of animals were injected with the antagonists alone. Additionally, separate groups of animals were injected with sumatriptan systemically and microinjected with the antagonists in the RVM to determine if the RVM is a site of action for systemically applied sumatriptan. The microinjection of antagonists into the RVM was done immediately following the systemic injection of sumatriptan. All animals were tested for behavioral signs of hypersensitivity every 20 min for two h after the end of the injections.
Pancreatitis was produced by a tail vein injection of dibutyltin dichloride (DBTC, Aldrich, Milwaukee, Wis., 0.25 cc) dissolved in 100% ethanol at a dose of 8 mg/kg under isofluorane anesthesia (2-3 liters/min, 4.0%/vol until anesthetized, then 2.5%/vol throughout the procedure; Vera-Portocarrero et al., Gastroenterology. 130:2155-2164 (2006)). Control animals were injected with the vehicle solution only (100% ethanol, 0.25 mL).
Referred abdominal hypersensitivity in the pancreatitis model was quantified by measuring the number of withdrawal events evoked by application of a calibrated von Frey filament (determined by either abdominal withdrawal, licking of the abdominal area, or whole body withdrawal). Rats were placed inside Plexiglas boxes on an elevated fine fiberglass screen mesh and acclimated for 30 minutes before testing. […]

[5] = test system: rats with experimental colonic hypersensitivity (butyrate), referred lumbar hypersensitivity; assay: colonic hypersensitivity model (intracolonic sodium butyrate): referred lumbar hypersensitivity, von Frey mechanical threshold; format: in vivo, Sprague Dawley rats; conditions: 10 μg IV, up to 120 minutes postinjection, data not shown
[6] = test system: rats with experimental colonic hypersensitivity (butyrate), referred lumbar hypersensitivity; assay: as above; format: in vivo, Sprague Dawley rats; conditions: for behavior of rats previously injected with intracolonic vehicle: control rats
Description: as §1, §2
For the experiments involving microinjection of drugs into the RVM, rats underwent surgeries to implant RVM cannulae. After five days of recovery, rats received either intravenous injection of DBTC to induce pancreatitis, or intracolonic injection of sodium butyrate to induce colonic hypersensitivity. Animals were monitored for development of visceral hypersensitivity on the subsequent days. On day six after either induction of pancreatitis or colonic hypersensitivity, animals underwent baseline behavioral measurements. Sumatriptan was microinjected into the RVM at different doses (separate groups of rats for each dose) and animals were monitored behaviorally for two h after sumatriptan application in the RVM. For experiments investigating the effects of serotonin antagonists, the drugs were microinjected concurrently with injection of sumatriptan and animals were monitored for the subsequent two h. Separate groups of animals were microinjected with the antagonists alone to control for possible effects of the drugs by themselves.
For the experiments involving systemic drug administration, rats received intravenous injection of DBTC to induce pancreatitis or intracolonic injection of sodium butyrate to induce colonic hypersensitivity. On day six after either induction of pancreatitis of colonic hypersensitivity, animals underwent baseline behavioral measurements. Sumatriptan was injected intraperitoneally at different doses (separate groups of rats for each dose) and the animals were monitored behaviorally every 20 min for two h after injection. For experiments investigating the effects of serotonin antagonists, the drugs were injected intraperitoneally immediately following the injection of sumatriptan (separate groups for each respective antagonist). Separate groups of animals were injected with the antagonists alone. Additionally, separate groups of animals were injected with sumatriptan systemically and microinjected with the antagonists in the RVM to determine if the RVM is a site of action for systemically applied sumatriptan. The microinjection of antagonists into the RVM was done immediately following the systemic injection of sumatriptan. All animals were tested for behavioral signs of hypersensitivity every 20 min for two h after the end of the injections.
Colonic hypersensitivity was induced by enemas of a sodium butyrate solution ([…]) twice daily for 3 days (Bourdu et al., Gastroenterology. 128:1996-2008 (2005)). […]

[7] = test system: capsaicin-induced hyperemia in the sciatic nerve; conditions: Zochodne and Ho; cited from earlier work
[8] = RVM microinjection, butyrate rats

CNS(=O)(=O)Cc1ccc2[nH]cc(CCN(C)C)c2c1 [sumatriptan]
antinociceptive efficacy in acetic acid-induced abdominal writhing [1]: has antinociceptive efficacy | thermal hypersensitivity induced by intraplantar carrageenan [2]: attenuated | evoked release of calcitonin gene-related peptide [3]: inhibits | frequency of abdominal withdrawals after IV sumatriptan ([4]; 10 μg IV, DBTC rats, up to 120 minutes postinjection, data not shown): not altered | frequency of withdrawals in DBTC-injected rats ([4]; IP sumatriptan 100, 200, 300 μg/kg, day 6 after DBTC): reduced abdominal withdrawals in pancreatic rats in a dose-dependent manner; also recorded: reduced the frequency of withdrawals in DBTC-injected rats in a time- and dose-dependent manner | responses to abdominal stimulation in vehicle-injected control rats ([4]; IP sumatriptan, rats without pancreatitis): did not alter responses to abdominal stimulation | time for which systemic sumatriptan was active postinjection ([4]; IP, DBTC rats): up to 100 minutes | time of peak effect ([4]; IP, DBTC rats): 40 min | time point at which the effect dissipated ([4]; IP, DBTC rats): 120 min | time to attenuation of withdrawals after administration ([4]; IP, DBTC rats): ≤ 20 min | A50 dose (and 95% confidence interval) for IP sumatriptan ([4]; IP, day 6 after IV DBTC, frequency of abdominal withdrawals, A50 = dose producing a 50% response): 172.4 (124.5-386.7) μg/kg | frequency of withdrawals after RVM administration ([4]; RVM microinjection 1, 3, 10 μg, DBTC rats): reduced the number of withdrawals in a dose-dependent manner; also recorded: attenuated the increased frequency of withdrawals | time by which the effects of RVM sumatriptan dissipated ([4]; RVM microinjection, DBTC rats): ≤ 100 min | time for which the effects of RVM sumatriptan endured ([4]; RVM microinjection, DBTC rats): approximately 60 minutes | time of peak effect ([4]; RVM microinjection, DBTC rats): 40 min | time to attenuation of withdrawals after administration ([4]; RVM microinjection, DBTC rats): ≤ 20 min | responses to abdominal stimulation in vehicle-injected rats ([4]; RVM microinjection, rats without pancreatitis): did not alter responses to abdominal stimulation | A50 dose (and 95% CI) for RVM sumatriptan ([4]; microinjection into the RVM, DBTC rats, frequency of withdrawals): 4.3 (3.1-16.2) μg | frequency of withdrawals, single RVM dose ([4]; sumatriptan 10 μg into the RVM, DBTC rats, v. RVM saline): attenuated the frequency of withdrawals; also recorded: reduced the frequency of withdrawals | frequency of withdrawals, single dose of systemic sumatriptan ([4]; sumatriptan 300 μg/kg IP, DBTC rats, v. saline): attenuated the frequency of withdrawals; also recorded: reduced the frequency of withdrawals | reduced lumbar mechanical threshold after IV sumatriptan [5]: did not reverse the reduction in threshold | mechanical threshold of rats injected with sodium butyrate ([6]; IP sumatriptan 100, 200, 300 μg/kg): restored tactile thresholds of butyrate-treated rats in a dose dependent manner; also recorded: increased the mechanical threshold of rats injected with sodium butyrate in a time- and dose-dependent manner | behavior of rats previously injected with intracolonic vehicle ([6]; IP sumatriptan): did not modify the behavior | time for which systemic sumatriptan was active postinjection ([6]; IP, butyrate rats): 60 min | time of peak effect ([6]; IP, butyrate rats): 40 min | time point by which the effect dissipated ([6]; IP, butyrate rats): up to 100 minute | time to reversal of reduced mechanical threshold after administration ([6]; IP, butyrate rats): ≤ 20 min | A50 (and 95% CI) dose for IP sumatriptan ([6]; IP, butyrate rats, lumbar mechanical threshold): 232.6 (182.2-322.8) μg/kg | lumbar hypersensitivity / lumbar dermatome mechanical threshold after RVM administration ([6]; RVM microinjection 1, 3, 10 μg, butyrate rats): restored tactile thresholds of butyrate-treated rats in a dose dependent manner; also recorded: time- and dose-dependent attenuation of lumbar hypersensitivity | time by which the effects of RVM sumatriptan dissipated [6, 8]: ≤ 100 min | time for which the effects of RVM sumatriptan endured [6, 8]: approximately 60 minutes | time of peak effect [6, 8]: 40 min | time to reversal of reduced mechanical threshold after administration [6, 8]: ≤ 20 min | behavior of rats previously injected with intracolonic vehicle ([6]; RVM microinjection): did not modify the behavior | A50 (and 95% CI) dose for RVM sumatriptan ([6]; microinjection into the RVM, butyrate rats, lumbar mechanical threshold): 3.2 (2.0-12.5) μg | mechanical threshold, single RVM dose ([6]; sumatriptan 10 μg into the RVM, butyrate rats, v. RVM saline): increased the mechanical threshold | mechanical threshold, single dose of systemic sumatriptan ([6]; sumatriptan 300 μg/kg IP, butyrate rats, v. saline): increased the mechanical threshold | capsaicin-induced hyperemia in the sciatic nerve [7]: inhibits capsaicin-induced hyperemia
